Tests used:
Experiment in all cases: relative viability (nuclei count vs DMSO), 5 days (fraction); higher = more cells survive
Bortezomib + Crizotinib = compound: CC(C)C[C@H](NC(=O)[C@H](Cc1ccccc1)NC(=O)c1cnccn1)B(O)O [Bortezomib] + C[C@@H](Oc1cc(-c2cnn(C3CCNCC3)c2)cnc1N)c1c(Cl)ccc(F)c1Cl [Crizotinib] (partner 1 µM)
Procedure, shortened: (§1)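 Lung cancer cell lines were pin-tool dosed in 1536-well plates on the day after seeding, with either a lone drug or a fixed anchor-drug dose plus five library-drug doses (not always all listed) in √10 steps. Nuclei were counted on 4× images after 5 days. Relative viability is the ratio of treated-well to vehicle-well nuclei counts, with each value a median of duplicate plates.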

[1] = compound: CC1=CC(=NN1)NC2=CC(=NC(=N2)/C=C/C3=CC=CC=C3)N4CCN(CC4)C + Nc1ncn([C@H]2C[C@H](O)[C@@H](CO)O2)c(=O)n1 [Decitabine] (partner 2 µM)
Procedure, shortened: as §1

Obatoclax + Bortezomib = compound: COC1=CC(c2cc3ccccc3[nH]2)=N/C1=C\c1[nH]c(C)cc1C [Obatoclax] + CC(C)C[C@H](NC(=O)[C@H](Cc1ccccc1)NC(=O)c1cnccn1)B(O)O [Bortezomib] (partner 0.002 µM)
Procedure, shortened: as §1

Obatoclax + Tozasertib = compound: COC1=CC(c2cc3ccccc3[nH]2)=N/C1=C\c1[nH]c(C)cc1C [Obatoclax] + Cc1cc(Nc2cc(N3CCN(C)CC3)nc(Sc3ccc(NC(=O)C4CC4)cc3)n2)n[nH]1 [Tozasertib] (partner 0.1 µM)
Procedure, shortened: as §1

Cell Line	relative viability (Bortezomib + Crizotinib; first compound 0.0002 µM)	relative viability (Bortezomib + Crizotinib; first compound 0.000632 µM)	relative viability (Bortezomib + Crizotinib; first compound 0.002 µM)	relative viability (Bortezomib + Crizotinib; first compound 0.006325 µM)	relative viability (Bortezomib + Crizotinib; first compound 0.02 µM)	relative viability ([1]; first compound 0.08 µM)	relative viability ([1]; first compound 0.253 µM)	relative viability ([1]; first compound 0.8 µM)	relative viability ([1]; first compound 2.53 µM)	relative viability ([1]; first compound 8 µM)	relative viability (Obatoclax + Bortezomib; first compound 0.01 µM)	relative viability (Obatoclax + Bortezomib; first compound 0.03162 µM)	relative viability (Obatoclax + Bortezomib; first compound 0.1 µM)	relative viability (Obatoclax + Bortezomib; first compound 0.3162 µM)	relative viability (Obatoclax + Bortezomib; first compound 1 µM)	relative viability (Obatoclax + Tozasertib; first compound 0.01 µM)	relative viability (Obatoclax + Tozasertib; first compound 0.03162 µM)	relative viability (Obatoclax + Tozasertib; first compound 0.1 µM)	relative viability (Obatoclax + Tozasertib; first compound 0.3162 µM)	relative viability (Obatoclax + Tozasertib; first compound 1 µM)
PC-14	0.935	0.935	0.947	0.359	0.0821	0.179	0.2	0.253	0.0601	0.0537	0.782	0.947	0.777	0.798	0.283	0.553	0.562	0.473	0.535	0.348
NCI-H1915	0.877	0.909	0.694	0.435	0.0428	0.241	0.273	0.261	0.238	0.168	1.05	0.748	0.93	1.01	0.975	0.401	0.405	0.424	0.382	0.414
NCI-H661	1.1	1.03	1.16	0.82	0.269	0.551	0.529	0.524	0.302	0.249	0.805	0.704	0.865	0.843	0.786	0.365	0.336	0.393	0.355	0.357
HCC-78	0.365	0.328	0.299	0.148	0.174	0.585	0.624	0.694	0.472	0.292	0.539	0.402	0.718	0.456	0.743	0.338	0.404	0.664	0.399	0.344
PC-3 [JPC-3]	1.01	0.98	0.726	0.934	0.133	0.807	0.882	0.806	0.834	0.543	0.905	0.789	0.815	0.827	0.977	0.913	0.85	0.87	0.81	0.859
LCLC-103H	1.04	1.04	0.997	0.756	0.207	0.746	0.774	0.72	0.713	0.64	1.01	1	0.992	1.07	1.05	0.498	0.472	0.505	0.477	0.553
EKVX	0.942	0.894	0.822	0.268	0.106	0.299	0.297	0.374	0.331	0.152	1.05	1.01	1.03	1.01	1.13	0.371	0.357	0.466	0.385	0.394
NCI-H460	0.979	0.832	0.927	0.0481	0.0102	0.531	0.522	0.466	0.0534	0.0287	1.01	1.19	0.945	0.0492	0.0392	0.419	0.504	0.424	0.443	0.188

Source: the supplement of paper PMC10307832
